Laboratory results reported in patent US9642897B2, “Treatment of bone diseases” (THE UNIVERSITY OF SYDNEY, priority 2011, dated 2017).
“Also recorded” adds a separate entry of the source.

What was measured:
[1] = system: RUNX2, OCN and OPN; assay: Osteogenic gene expression (RUNX2, OCN, OPN) in differentiating MSC; format: cell-based, human; conditions: for relative gene expression of RUNX2, OCN and OPN: differentiating MSC
Experimental: (§1) Subsequently, the effect of chemical inhibition/stimulation of the intermediate and end products of kynurenine activation on osteogenic differentiating MSC was then characterised.
These compounds were added to the MSC media on day one of differentiation. […] Media was changed every three days. […]

[2] = system: gut-derived serotonin (GDS); conditions: Yadav et al. (2010); cited from earlier work
[3] = system: mesenchymal stem cells (MSC); assay: Mineralization (alizarin red staining) of osteogenic differentiating MSC; format: cell-based, human
Experimental: (§2) Human mesenchymal stem cells (MSC) (BioWhittaker, Walkersville, Md., USA) were plated at a density of 5×10^5 cells per well in 150 cm^2 dishes containing MSC growth medium (GM) (BioWhittaker, Walkersville, Md., USA) with 10% fetal calf serum (FCS) and incubated at 37° C. After the cells reached 60% confluence, media was replaced with either GM or osteoblastogenesis induction media (OIM) (prepared with MSCGM, 10% FCS, […] dexamethasone, 10 mmol/L β glycerol phosphate and 50 μg/mL ascorbic acid) for 21 days. Media was changed every three days. Media obtained at the beginning of the 1st, 2nd and 3rd wk of differentiation as well as conditioned media were collected for measurement of IFNγ. Concentrations of IFNγ in the conditioned media were measured from both GM and OM treated cells using Human […] DuoSet ELISA Development Kit (R&D Systems, Minneapolis, Mich., USA). To compare between the osteogenic and the immune effect of IFNγ, Jurkat cells and human T lymphocytes were plated at a density of 5×10^5 cells per well in 150 cm^2 dishes containing RPMI media.
as §1
These compounds were added to the MSC media on day one of differentiation. Cells were treated for […]. Media was changed every three days. After three weeks of treatment, osteoblastogenesis and changes in osteogenic genes were quantified as described above.

[4] = system: bone marrow stromal cells (BMSC) from IDO-1 KO and WT mice; assay: Osteogenic differentiation of BMSC from IDO-1 KO and WT mice (alizarin red); format: cell-based; conditions: vs vehicle
Experimental: One side tibiae from 9-month-old IDO-1^−/− and IDO-1^+/+ mice (n=6 per group) were flushed using a 21-gauge needle attached to a 10 ml syringe filled with Dulbecco's modified Eagle's medium (DME) (GIBCO BRL, Gaithersburg, Md., USA). The bone marrow cells were filtered through a cell strainer with a 70-micron nylon mesh (BD Bioscience, Bedford, Mass., USA) and plated in 10 cm^2 tissue culture dishes. The cells were incubated in growth medium at 37° C. with 5% humidified CO2 and isolated by their adherence to tissue culture plastic. Medium was aspirated and replaced with fresh medium every 2 to 3 days to remove non-adherent cells. The adherent MSC were grown to confluency for about 7 days and defined as MSC at passage 0, harvested with 0.25% trypsin and 1 mM EDTA for 5 min at 37° C., diluted 1:3 in growth medium, plated and grown to confluency for further expansion. After 2nd and 3rd passages, MSC were used for subsequent experiments.
To induce differentiation, a total of 10^4 cells were diluted in osteogenic medium and plated in 24 dishes per group in the presence or absence of either quinolinic or picolinic acid. Media was aspirated and replaced with fresh osteogenic medium every 3 days. At 21 days, medium was removed and cultures were fixed in 10% v/v formol/saline solution for 5 min. Cultures were stained with Alizarin Red, which was then extracted and quantified at 570 nm.

[5] = system: IDO-1 gene expression; assay: IDO-1 gene expression in osteogenic differentiating MSC (cDNA array / real time PCR); format: cell-based, human; conditions: for increase in IDO-1 expression: differentiating osteoblasts
Experimental: as §2
Cells were treated with either IFNγ (100 nM) or vehicle for two weeks. At week 2, total RNA was extracted from treated MSC, Jurkat T lymphocytes using an Easy-Kit mini prep (Qiagen, Valencia, Calif., USA). Generation of cDNA, fluorescent labeling, hybridization to the gene chip and data analysis were performed by the Genomics Laboratory at Ramacciotti Institute (Sydney, Australia). 12,000 human genes were examined and expressed sequences tags (ESTs) on the array Human Genome U95A (Affymetrix, Inc. Santa Clara, Calif., USA) and analyzed the results using the MicroDB™ Software (Affymetrix, Inc. Santa Clara, Calif., USA). Expression values of the differentiated and non-differentiated MSC and between MSC vs. Jurkat cells and T lymphocytes were compared using Student's t test. Genes with significant changes were then grouped depending on their known function. The biological function of each gene product was obtained from literature searches in medical databases. This experiment was repeated twice and significant changes in gene expression determined by the method of biological duplicates.
A cDNA gene array analysis was performed in MSC induced to differentiate into osteoblasts using osteogenic media for 7 days while being treated with an anabolic dose of IFNγ (100 nM) in vitro. A comparison of was made of cDNA data obtained from differentiating MSC, human primary T-lymphocytes and Jurkat cells either untreated or treated with IFNγ (FIG. 1). The aims of this approach were not only to characterise the osteogenic effect of IFNγ on osteogenic differentiating MSC, but also to compare the osteogenic vs. the immunogenic profile of IFNγ. […]

[6] = rats; cited from earlier work
[7] = system: TPH-1 gene expression; assay: TPH-1 gene expression in IFNγ-treated immune cells (Jurkat cells, T lymphocytes); format: cell-based, human; conditions: immune cells treated with IFNγ
Experimental: as §2, with “To compare between the osteogenic and the immune effect of IFNγ, Jurkat cells and human T lymphocytes were plated at a density of 5×10^5 cells per well in 150 cm^2 dishes containing RPMI media.” left out
(§3) Cells were treated with either IFNγ (100 nM) or vehicle for two weeks. […] 12,000 human genes were examined and expressed sequences tags (ESTs) on the array Human Genome U95A (Affymetrix, Inc. Santa Clara, Calif., USA) and analyzed the results using the MicroDB™ Software (Affymetrix, Inc. Santa Clara, Calif., USA). […] This experiment was repeated twice and significant changes in gene expression determined by the method of biological duplicates. […]

[8] = system: IDO-1 gene expression; assay: IDO-1 gene expression in IFNγ-treated immune cells (Jurkat cells, T lymphocytes); format: cell-based, human; conditions: immune cells treated with IFNγ
Experimental: as §2, with “To compare between the osteogenic and the immune effect of IFNγ, Jurkat cells and human T lymphocytes were plated at a density of 5×10^5 cells per well in 150 cm^2 dishes containing RPMI media.” left out
as §3

[9] = system: IDO-1; assay: Kynurenine/tryptophan ratio by HPLC in differentiating MSC; format: cell-based, human; conditions: MSC treated with IFNγ
[10] = system: serotonin; assay: Serotonin concentrations in MSC supernatants (ELISA); format: cell-based, human; conditions: IFNγ treated vs untreated cells
From the text: In addition, there was no difference in the serotonin concentrations (measured using ELISA) in the supernatants obtained from osteoblastogenesis induction media (OIM)- and IFNγ-treated vs. untreated cells. […] This effect is independent of serotonin concentration in the media.

[11] = system: IDO-1; assay: Immunohistochemistry of IDO-1 in gut and bone of IFNγ-treated mice; format: in vivo, C57BL/6 mice; conditions: IFNγ 2,000 IU, 3 times a week for 6 weeks
Experimental: (§4) Animals were purchased from Jackson Laboratories (Bar Harbor, Me., USA). 8-week-old virgin female C57BL/6 mice (Charles River Laboratories, Quebec, Canada) were used to study the effect of exogenous administration of IFN-γ on bone and gut expression of IDO-1 and TPH-1. Bilateral ovariectomies (OVX) were performed under general anesthesia. Another group of animals was sham-operated (SHAM), in which ovaries were exteriorized but replaced intact. Two weeks after surgery, mice (OVX and SHAM) received intraperitoneal injections of 2000 IU of IFN-γ (R&D Systems, Inc., Minneapolis, Minn., USA) or vehicle (PBS) three times weekly for a total of 6 weeks. Mice were housed in cages in a limited-access room. Animal husbandry adhered to Canadian Council on Animal Care Standards, and all protocols were approved by the McGill University Health Center Animal Care Utilization Committee. […]
(§5) For immunohistochemistry, gut and bone sections were incubated overnight at 4° C. with a goat polyclonal antibody IgG against either IDO-1 or TPH-1 (Santacruz Biotechnology Inc. Santa Cruz Calif., USA), Primary antibody was detected by incubation with an anti-goat IgG secondary antibody conjugated with horseradish peroxidase (1:300 in BSA 1%, Sigma-Aldrich, St. Louis, Mo., USA)]. […] Photographs were taken under an Olympus fluorescence microscope controlled by an IPLab system. […]

[12] = system: TPH-1; assay: Immunohistochemistry of TPH-1 in gut and bone of IFNγ-treated mice; format: in vivo, C57BL/6 mice; conditions: IFNγ 2,000 IU, 3 times a week for 6 weeks
Experimental: as §4, §5

[13] = system: gut derived serotonin; assay: Gut derived serotonin (GDS) in gut of IFNγ-treated mice; format: in vivo, C57BL/6 mice; conditions: IFNγ 2,000 IU, 3 times a week for 6 weeks
Experimental: Animals were purchased from Jackson Laboratories (Bar Harbor, Me., USA). 8-week-old virgin female C57BL/6 mice (Charles River Laboratories, Quebec, Canada) were used to study the effect of exogenous administration of IFN-γ on bone and gut expression of IDO-1 and TPH-1. Bilateral ovariectomies (OVX) were performed under general anesthesia. Another group of animals was sham-operated (SHAM), in which ovaries were exteriorized but replaced intact. Two weeks after surgery, mice (OVX and SHAM) received intraperitoneal injections of 2000 IU of IFN-γ (R&D Systems, Inc., Minneapolis, Minn., USA) or vehicle (PBS) three times weekly for a total of 6 weeks. Mice were housed in cages in a limited-access room. Animal husbandry adhered to Canadian Council on Animal Care Standards, and all protocols were approved by the McGill University Health Center Animal Care Utilization Committee.
One side femur and proximal gut from each animal in each group was removed at the time of euthanization. Bone was fixed in 70% ethanol, dehydrated, and embedded undecalcified in methyl methacrylate (J-T Baker, Phillipsburg, N.J., USA). At 50-μm intervals, longitudinal sections 5- and 8-μm thick were cut using a Polycut-E microtome (Reichert-Jung Leica, Heerbrugg, Switzerland). Gut was fixed and embedded in paraffin for future analysis. Gut sections were obtained as described above.

[14] = 1000 nM quinolinic acid, 14 days, vs untreated cells

## Nc1ccccc1C(=O)CC(N)C(=O)O [L-kynurenine, 2-amino-4-(2-aminophenyl)-4-oxo-butanoic acid, reference compound]
[1]
  relative gene expression of RUNX2, OCN and OPN: not

## Nc1nc(OC(c2ccc(-c3cccc(F)c3)cc2)C(F)(F)F)cc(-c2ccc(C[C@H](N)C(=O)O)cc2)n1 (stereo partly shown) [LP533401]
[2]
  bone formation / osteoporosis in OVX mice: stimulates bone formation and recues OVX mice from osteoporosis

## O=C(O)c1cccnc1C(=O)O [QA, 2,3-Pyridinedicarboxylic acid]
[3]; MSC in OIM, 2 weeks
  osteoblastogenesis / mineralisation (alizarin red): accelerated mineralisation; also recorded: stimulate osteoblastogenesis
[1]; [14]
  relative expression (RE) RUNX2: 3 fold
  relative expression (RE) osteopontin: 6 fold
[1]
  relative gene expression of RUNX2, OCN and OPN: increased
[4]
  mineralisation (alizarin red staining): higher levels of mineralisation

## CN[C@H](Cc1c[nH]c2ccccc12)C(=O)O [methyl-D-tryptophan, reference compound]
[5]; day 14 of differentiation, in the presence of inhibitor, vs control
  RE of IDO-1: 0.02
[3]; inhibition of IDO-1
  mineralization measured by alizarin red: significant decrease
[1]; with IDO-1 inhibition
  osteogenic genes expression: reduced

## CC[C@H](C)[C@H](NC(=O)[C@H](CCC(=O)O)NC(=O)[C@H](CO)NC(=O)[C@@H](NC(=O)[C@@H](N)CO)C(C)C)C(=O)N[C@@H](CCC(N)=O)C(=O)N[C@@H](CC(C)C)C(=O)N[C@@H](CCSC)C(=O)N[C@@H](Cc1cnc[nH]1)C(=O)N[C@@H](CC(N)=O)C(=O)N[C@@H](CC(C)C)C(=O)NCC(=O)N[C@@H](CCCCN)C(=O)N[C@@H](Cc1cnc[nH]1)C(=O)N[C@@H](CC(C)C)C(=O)N[C@@H](CC(N)=O)C(=O)N[C@@H](CO)C(=O)N[C@@H](CCSC)C(=O)N[C@@H](CCC(=O)O)C(=O)N[C@@H](CCCN=C(N)N)C(=O)N[C@H](C(=O)N[C@@H](CCC(=O)O)C(=O)N[C@@H](Cc1c[nH]c2ccccc12)C(=O)N[C@@H](CC(C)C)C(=O)N[C@@H](CCCN=C(N)N)C(=O)N[C@@H](CCCCN)C(=O)N[C@@H](CCCCN)C(=O)N[C@@H](CC(C)C)C(=O)N[C@@H](CCC(N)=O)C(=O)N[C@@H](CC(=O)O)C(=O)N[C@H](C(=O)N[C@@H](Cc1cnc[nH]1)C(=O)N[C@@H](CC(N)=O)C(=O)N[C@@H](Cc1ccccc1)C(=O)O)C(C)C)C(C)C [teriparatide]
[6]
  tumour growth: cause malignant tumour growth (osteogenic carcinoma)

## IFNγ: interferon gamma, stimulator of IDO-1
[5]; IFNγ 100 nM, differentiating MSC in osteogenic media 7 days, vs untreated MSC and immune cells
  IDO-1 gene expression: 12 fold
[5]; 14th day
  increase in IDO-1 expression: 13 fold
[5]; after 7 days
  increase in IDO-1 expression: 36 fold
[7]
  TPH-1 gene expression: high levels
[8]
  IDO-1 gene expression: without affecting
[3]; IFNγ 100 ng/ml, one week of osteogenic differentiation, vs vehicle
  mineralization (alizarin red staining): higher levels of mineralization
[9]
  kynurenine/tryptophan ratio (tryptophan degradation): higher kynurenine/tryptophan ratio
[10]
  serotonin concentrations in the supernatants: No changes
[11]
  levels of IDO-1 in gut and bone marrow: higher levels of IDO-1
[12]
  expression of TPH-1 in gut and bone: remains unaltered
[13]
  GDS in the gut: remains unaltered
